These results are taken from publication PMC5171807, “Five colour variants of bright luminescent protein for real-time multicolour bioimaging” (Nature Communications, 2016).

In the experiment the target is T1, green eNL (GeNL) (Oplophorus gracilirostris, UniProt Q9GV45, A31E/Q38R/Q45L/L54V/A60N/K70R/V71I/A81I/F95D/L99Q/M102K/I117V/P142E/Q151K/Y165I/N193R).
T1 construct: single-chain fusion: C-terminally truncated mNeonGreen - two-residue linker - NanoLuc (N-terminal deletion 4); N-terminal His tag; E. coli; with mNeonGreen
Nature of the experiment: luminescence initial velocity (first […] s), Michaelis-Menten fit. The format is biochemical. Particulars: 10 pM enzyme; furimazine 0.025-13 μM.

T1 sequence (Q9GV45 30-196 with the stated changes): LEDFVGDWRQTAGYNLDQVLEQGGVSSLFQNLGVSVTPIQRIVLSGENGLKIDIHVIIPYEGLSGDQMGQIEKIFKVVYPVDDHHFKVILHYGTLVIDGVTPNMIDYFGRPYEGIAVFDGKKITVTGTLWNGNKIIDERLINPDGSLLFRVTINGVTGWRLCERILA

In the case of `O=c1c(Cc2ccco2)nc2c(Cc3ccccc3)[nH]c(-c3ccccc3)cn1-2` [furimazine], the Km result was “enzymatic parameters (Km and kcat) of the eNLs and Nluc”.
